# Key:
# [1] = target: T1, CYP105AS1 (Amycolatopsis orientalis, UniProt W5VH56); test: UV-vis spectral (type I Soret shift) titration of 3-8 uM purified P450 with compactin from DMSO stocks at 25 °C in 50 mM potassium phosphate, 300 mM KCl, 10% glycerol, pH 8.0; hyperbolic or Morrison tight-binding fit.
# T1 construct: N-terminal polyhistidine tag, pBAD vector, expressed in E. coli Top10
# T1 sequence (W5VH56 1-401): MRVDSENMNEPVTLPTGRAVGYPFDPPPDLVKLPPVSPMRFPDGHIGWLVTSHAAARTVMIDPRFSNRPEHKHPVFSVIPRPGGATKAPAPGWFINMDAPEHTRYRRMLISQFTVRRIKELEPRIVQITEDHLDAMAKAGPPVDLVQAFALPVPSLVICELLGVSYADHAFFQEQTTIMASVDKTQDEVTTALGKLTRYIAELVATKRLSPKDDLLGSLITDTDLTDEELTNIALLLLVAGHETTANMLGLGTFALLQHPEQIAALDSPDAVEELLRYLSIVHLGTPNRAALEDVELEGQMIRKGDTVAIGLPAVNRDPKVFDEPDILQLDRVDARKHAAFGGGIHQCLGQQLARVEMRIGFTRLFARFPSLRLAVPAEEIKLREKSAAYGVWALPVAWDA
# Description: (§1) Absorbance spectra (300–800 nm) of P450 variants were measured on a Cary 60 UV–vis spectrophotometer at 25 °C using 3–8 μM protein in buffer A. The pyridine hemochromogen method was used to quantify CYP105AS1 P450 variant heme concentrations and to determine an extinction coefficient at the heme Soret maximum for each variant.[89] For titration, compactin (0.05–0.5 μL) was added from 5 to 50 mM stock solutions in DMSO. The overall absorbance change (ΔAmax) was calculated as Apeak (absorbance maximum) minus Atrough (absorbance minimum) and plotted against the substrate concentration. Data were fitted according to a standard hyperbolic binding equation or a Morrison equation for tight-binding to determine dissociation constants (Kd).[90],[91]
# (§2) UV–vis substrate binding studies were conducted to investigate the effect of mutations on compactin binding. […] Probably, the bulky aromatic side chain of the introduced Phe95 residue influenced the binding of compactin, which allowed elimination of the proximal water ligand and full conversion to the high-spin state upon binding of this substrate.
# [2] = target: T2, P450pra (Amycolatopsis orientalis, UniProt W5VH56, I95T/Q127R/A180V/L236I/A265N); type: binding
# T2 construct: N-terminal polyhistidine tag, expressed in E. coli; directed evolution variant
# T2 sequence (W5VH56 entry or part of it I95T/Q127R/A180V/L236I/A265N): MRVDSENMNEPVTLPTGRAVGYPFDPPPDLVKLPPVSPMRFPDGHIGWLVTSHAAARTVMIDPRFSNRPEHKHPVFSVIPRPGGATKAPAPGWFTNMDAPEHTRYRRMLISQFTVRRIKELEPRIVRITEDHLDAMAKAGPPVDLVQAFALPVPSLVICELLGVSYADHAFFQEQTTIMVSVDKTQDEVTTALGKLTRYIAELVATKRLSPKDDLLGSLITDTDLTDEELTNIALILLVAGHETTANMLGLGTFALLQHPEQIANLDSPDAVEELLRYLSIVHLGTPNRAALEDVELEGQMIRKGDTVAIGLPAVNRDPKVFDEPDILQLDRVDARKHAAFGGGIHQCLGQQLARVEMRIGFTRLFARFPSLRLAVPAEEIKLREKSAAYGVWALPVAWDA
# Description: as §1, §2
# [3] = target: T3, P450pra + F76N (Amycolatopsis orientalis, UniProt W5VH56, F76N/I95T/Q127R/A180V/L236I/A265N); type: binding
# T3 construct: N-terminal polyhistidine tag, expressed in E. coli
# T3 sequence (W5VH56 entry or part of it F76N/I95T/Q127R/A180V/L236I/A265N): as the sequence (W5VH56 entry or part of it I95T/Q127R/A180V/L236I/A265N) above, with F76N counted along it
# Description: as §1, §2
# [4] = target: T4, P450pra + P80G (Amycolatopsis orientalis, UniProt W5VH56, P80G/I95T/Q127R/A180V/L236I/A265N); type: binding
# T4 construct: N-terminal polyhistidine tag, expressed in E. coli
# T4 sequence (W5VH56 entry or part of it P80G/I95T/Q127R/A180V/L236I/A265N): as the sequence (W5VH56 entry or part of it I95T/Q127R/A180V/L236I/A265N) above, with P80G counted along it
# Description: as §1, §2
# [5] = target: T5, P450pra + T286I (Amycolatopsis orientalis, UniProt W5VH56, I95T/Q127R/A180V/L236I/A265N/T286I); type: binding
# T5 construct: N-terminal polyhistidine tag, expressed in E. coli
# T5 sequence (W5VH56 entry or part of it I95T/Q127R/A180V/L236I/A265N/T286I): as the sequence (W5VH56 entry or part of it I95T/Q127R/A180V/L236I/A265N) above, with T286I counted along it
# Description: as §1, §2
# [6] = target: T6, P450pra + T95F (Amycolatopsis orientalis, UniProt W5VH56, I95F/Q127R/A180V/L236I/A265N); type: binding
# T6 construct: N-terminal polyhistidine tag, expressed in E. coli
# T6 sequence (W5VH56 entry or part of it I95F/Q127R/A180V/L236I/A265N): as the sequence (W5VH56 entry or part of it I95T/Q127R/A180V/L236I/A265N) above, with T95F counted along it
# Description: as §1, §2
# [7] = target: T7, P450pra + T95F/V180M (=P450pra100) (Amycolatopsis orientalis, UniProt W5VH56, I95F/Q127R/A180M/L236I/A265N); type: binding
# T7 construct: N-terminal polyhistidine tag, expressed in E. coli
# T7 sequence (W5VH56 entry or part of it I95F/Q127R/A180M/L236I/A265N): as the sequence (W5VH56 entry or part of it I95T/Q127R/A180V/L236I/A265N) above, with T95F, V180M counted along it
# Description: as §1, §2
# [8] = target: T8, P450pra + T95W (Amycolatopsis orientalis, UniProt W5VH56, I95W/Q127R/A180V/L236I/A265N); type: binding
# T8 construct: N-terminal polyhistidine tag, expressed in E. coli
# T8 sequence (W5VH56 entry or part of it I95W/Q127R/A180V/L236I/A265N): as the sequence (W5VH56 entry or part of it I95T/Q127R/A180V/L236I/A265N) above, with T95W counted along it
# Description: as §1, §2
# [9] = target: T9, P450pra +V180I (Amycolatopsis orientalis, UniProt W5VH56, I95T/Q127R/A180I/L236I/A265N); type: binding
# T9 construct: N-terminal polyhistidine tag, expressed in E. coli
# T9 sequence (W5VH56 entry or part of it I95T/Q127R/A180I/L236I/A265N): as the sequence (W5VH56 entry or part of it I95T/Q127R/A180V/L236I/A265N) above, with V180I counted along it
# Description: as §1, §2
# [10] = target: T10, P450pra +V180M (Amycolatopsis orientalis, UniProt W5VH56, I95T/Q127R/A180M/L236I/A265N); type: binding
# T10 construct: N-terminal polyhistidine tag, expressed in E. coli
# T10 sequence (W5VH56 entry or part of it I95T/Q127R/A180M/L236I/A265N): as the sequence (W5VH56 entry or part of it I95T/Q127R/A180V/L236I/A265N) above, with V180M counted along it
# Description: as §1, §2
# [11] = system: human CYP3A4; set-up: method as in PMID 19530969; conditions: cited from earlier work
# [12] = system: CYP3A5; set-up: method as in PMID 19530969; conditions: cited from earlier work
SMILES,Kd [1] [µM],Kd [2] [µM],Kd [3] [µM],Kd [4] [µM],Kd [5] [µM],Kd [6] [µM],Kd [7] [µM],Kd [8] [µM],Kd [9] [µM],Kd [10] [µM],metabolism by human CYP3A4 [11],metabolism by human CYP3A5 [12]
"CC[C@H](C)C(=O)O[C@H]1CCC=C2C=C[C@H](C)[C@H](CC[C@@H]3C[C@@H](O)CC(=O)O3)[C@H]21 [compactin, compactin (mevastatin)]",30.3 ± 5.2,0.77 ± 0.07,4.81 ± 0.25,5.84 ± 0.34,4.93 ± 0.25,0.25 ± 0.01,0.13 ± 0.03,3.29 ± 0.03,1.64 ± 0.13,1.34 ± 0.06,,
CC[C@H](C)C(=O)O[C@H]1C[C@H](O)C=C2C=C[C@H](C)[C@H](CC[C@@H](O)C[C@@H](O)CC(=O)O)[C@H]21 [pravastatin],,,,,,,,,,,not significantly metabolized,not significantly metabolized

# From paper PMC9764288, “Computation-Aided Engineering of Cytochrome P450 for the Production of Pravastatin” (ACS Catalysis, 2022)
